Source: ChEMBL document CHEMBL1132678, “Imidazole-containing diarylether and diarylsulfone inhibitors of farnesyl-protein transferase” (Bioorg Med Chem Lett, 1999)

Tests used:
[1] = molecular target: Protein farnesyltransferase (Bos taurus, UniProt P29702+P49355); assay: Inhibition of bovine Farnesyltransferase in vitro.; assay type: protein-complex assay
Rat1 = assay: Inhibition of proliferation of v-Ha-ras-transformed RAT1 cells on poly-(HEMA)-coated plates; assay type: functional, cell-based; settings: Rattus norvegicus
[2] = molecular target: Protein farnesyltransferase (Homo sapiens, UniProt P49354+P49356); assay: Inhibition of Farnesyltransferase; assay type: protein-complex assay

Structure (SMILES)	IC50 [1]	IC50 [2]	IC50 (Rat1)
Cc1cc(N(Cc2cnc(C)n2Cc2ccc(C#N)cc2)C(=O)C2CC2)ccc1S(=O)(=O)c1ccccc1	232 nM		
N[C@@H](CS)CNc1cccc(Oc2cccc(C(=O)O)c2)c1	0.25 nM		
Cc1cc(N(Cc2cnc(C)n2Cc2ccc(C#N)cc2)CC2CC2)ccc1S(=O)(=O)c1ccccc1	8 nM		109 nM
Cc1cc(NCc2cnc(C)n2Cc2ccc(C#N)cc2)ccc1S(=O)(=O)c1ccccc1	0.45 nM		28 nM
O=C(O)c1cccc(Oc2ccc(N(Cc3c[nH]cn3)Cc3c[nH]cn3)cc2)c1	2.6 nM		
N[C@H](CS)CNc1ccc(Oc2cccc(C(=O)O)c2)cc1	0.4 nM		
c1ccc(Oc2ccc(NCc3cnc[nH]3)cc2)cc1	> 100000 nM		
CCCCN(Cc1cnc[nH]1)c1ccc(Oc2ccccc2)cc1	> 100000 nM		
Cc1ncc(CNc2ccc(S(=O)(=O)c3ccccc3)cc2)n1Cc1ccc(C#N)cc1	93 nM		177 nM
O=C(O)c1cccc(Oc2cccc(N(Cc3cnc[nH]3)Cc3cnc[nH]3)c2)c1	19 nM		
CSCC[C@H](NC(=O)[C@H](Cc1c[nH]c2ccccc12)NC(=O)[C@@H](NC(=O)[C@@H](N)CS)C(C)C)C(=O)O		525 nM	

Continued, in another order:

IC50 [1]	IC50 [2]	Structure (SMILES)	IC50 (Rat1)
1300 nM		N#Cc1ccc(Cn2cncc2CNc2ccc(Oc3ccccc3)cc2)cc1	
140 nM		CCCCN(Cc1cncn1Cc1ccc(C#N)cc1)c1ccc(Sc2ccccc2)cc1	
3200 nM		O=[N+]([O-])c1ccc(CN(Cc2c[nH]cn2)c2cccc(Oc3ccccc3)c2)cc1	
0.8 nM		N#Cc1ccc(Cn2cncc2CNc2ccc(C(=O)c3ccccc3)cc2)cc1	
1 nM		Cc1cc(NCc2cncn2Cc2ccc(C#N)cc2)ccc1S(=O)(=O)c1ccccc1	16 nM
42 nM		CCCCN(Cc1cncn1Cc1ccc(C#N)cc1)c1ccc(Oc2ccccc2)cc1	
0.7 nM		N#Cc1ccc(Cn2cncc2CNc2ccc(S(=O)(=O)c3ccccc3)cc2)cc1	31 nM
> 100000 nM		CCCCN(Cc1cn(Cc2ccc(C#N)cc2)cn1)c1ccc(Oc2ccccc2)cc1	
8 nM		N#Cc1ccc(CN(Cc2cncn2Cc2ccc(C#N)cc2)c2ccc(Oc3ccccc3)cc2)cc1	
81 nM		Cc1ncc(CN(Cc2ccc(C#N)cc2)c2ccc(S(=O)(=O)c3ccccc3)cc2)n1Cc1ccc(C#N)cc1	
1000 nM		O=[N+]([O-])c1ccc(CN(Cc2cnc[nH]2)c2ccc(Oc3ccccc3)cc2)cc1	
